Assay results from patent US20040253206A1 (priority 1999, published 2004).
Read-outs that look alike come from different tables or passages of the source.

Assays:
[1] = test system: A121 ovarian carcinoma cell line; assay: Tumor cell growth inhibition (SRB), A121; format: cell-based, human; conditions: 72-96 h, read-out: IC50 (±S.E.) A121
Description: (§1) HT-1080 and HT-1080/DR4 (MRP/LRP positive) fibrosarcoma cell lines (1,2) were obtained from Dr. Y. Rustum, Roswell Park Cancer Institute, Buffalo, N.Y. The A121 ovarian cell line (3) was provided by Dr. Kent Crickard, Buffalo General Hospital, Buffalo, N.Y. The MDA435/LCC6-WT and MDR^1 transfected cell lines (4) were provided by Dr. R. Clarke, Lombardi Cancer Center, Georgetown University School of Medicine. Cell lines were propagated as monolayers in RPMI-1640 containing 5% FCS, 5% NuSerum IV, 20 mM HEPES, 2 mM L-glutamine at 37° C. in a 5% CO2 humidified atmosphere.
(§2) Paclitaxel, which was used for comparison purposes and is not a compound of the present invention, was provided by Dr. I. Ojima, SUNY at Stonybrook. […] Paclitaxel was solubilized in 100% DMSO. […] For the second experiment (Experiment 2), less concentrated stock solutions (0.4 mM) of each compound were prepared in sterile H2O acidified with 10% 1 N HCl. […] All compounds were further diluted in RPMI-1640 containing 10 mM HEPES.
(§3) Assessment of cell growth inhibition was determined in 96 well microtiter plates according to the method of Skehan et al., “New Colorimetric Cytotoxicity Assay for Anticancer-Drug Screening, Articles 82(13):1107-1112 (1990). Briefly, cells were plated with 400-1800 cells/well in 96 well plates and incubated at 37° C. 15-18 hr prior to drug addition to allow for cell attachment. Each cell line was exposed to 12 concentrations of compound (a 6 log range), 5 replicate data points per compound concentration. […] Assays were terminated with 100 μl of ice-cold 50% TCA. After 1 hr at 4° C., plates were washed 5 times with tap water to remove TCA, low-molecular-weight metabolites and serum proteins. 50 μl of 0.4% sulforhodamine B (SRB) was added to each well. Following a five minute incubation at room temperature, plates were rinsed 5 times with 0.1% acetic acid and air dried. Bound dye was solubilized with 10 mM Tris Base (pH 10.5) for 5 min on a gyratory shaker. Optical density was measured at 570 nm.
(§4) Data were fit with the Sigmoid-Emax concentration-effect model (N. H. G. Holford and L. B. Scheiner, “Understanding the dose-effect relationship: Clinical applications of pharmacokinetic-pharmacodynamic models,” Clin. Pharmacokin. 6:429-453 (1981)) with nonlinear regression, weighted by the reciprocal of the square of the predicted response. The fitting software was developed at RPCI with Microsoft FORTRAN, and uses Marquardt algorithm (D. W. Marquardt, “An algorithm for least squares estimation of nonlinear parameters,” J. Soc. Ind. Appl. Math. 11:431-441) as adapted by Nash (J. C. Nash, Compact Numerical Method for Computers: Linear Algebra and Function Minimization, New York: John Wiley & Sons, 1979) for the nonlinear regression.

[2] = test system: LCC6-WT breast carcinoma cell line; assay: Tumor cell growth inhibition (SRB), LCC6-WT; format: cell-based, human; conditions: read-out: IC50 (±S.E.) LCC6-WT
Description: as §1, §2, §3, §4

[3] = test system: LCC6-MDR1 PgP transfected breast carcinoma cell line; assay: cells; conditions: for Resistance ratio (IC50 resistant cell line/IC50 parental line) LCC6-MDR1: LCC6-MDR1 versus LCC6-WT, range over experiments
Description: as §1, §2, §3, §4

[4] = test system: HT-1080 fibrosarcoma cell line; assay: Tumor cell growth inhibition (SRB), HT-1080; format: cell-based, human; conditions: 72-96 h, read-out: IC50 (±S.E.) HT-1080
Description: as §1, §2, §3, §4

[5] = test system: HT-1080-DR4 doxorubicin selected MDR (MRP/LRP phenotype) fibrosarcoma cell line; assay: Tumor cell growth inhibition (SRB), HT-1080-DR4; format: cell-based, human; conditions: for IC50: 72-96 h, read-out: IC50 (±S.E.) HT-1080-DR4; for Resistance ratio (IC50 resistant cell line/IC50 parental line) HT1080/DR4: HT1080/DR4 versus HT-1080, range over experiments
Description: as §1, §2, §3, §4

[6] = Chemical hydrolysis in wet acetonitrile; format: physicochemical; conditions: ca. 1 mg/mL in wet acetonitrile, 26 days at room temperature
Method: A sample of solid acetate (Compound 4) was dissolved (ca. 1 mg/mL) in wet acetonitrile (nonanhydrous due to exposure to humid air).

[7] = Storage stability of trifluoroacetate product fraction solutions (analytical HPLC); format: physicochemical
[8] = Hande 1998; cited from earlier work
[9] = Experiment 1, TX-001/TX-002 from 4.0 mM stocks
[10] = Experiment 2, TX-001/TX-002 from 0.4 mM stocks
[11] = 4.0 mM stock solutions that had been stored at 4° C. for 7 days
[12] = Experiment 1, TX-001/TX-002 from 4.0 mM stocks, 72-96 h
[13] = Experiment 2, TX-001/TX-002 from 0.4 mM stocks, 72-96 h

| Compound | IC50 [1, 9] | IC50 [1, 10] | IC50 [2, 11] | IC50 [2, 12] | IC50 [2, 13] | Resistance ratio (IC50 resistant cell line/IC50 parental line) LCC6-MDR1 [3] | IC50 [4, 9] | IC50 [4, 10] | IC50 [5, 9] | IC50 [5, 10] | Resistance ratio (IC50 resistant cell line/IC50 parental line) HT1080/DR4 [5] | also measured |
| --- | --- | --- | --- | --- | --- | --- | --- | --- | --- | --- | --- | --- |
| CC(=O)O.CC(=O)OC1C(=O)C2(C)C(O)CC3OCC3(OC(C)=O)C2C(OC(=O)c2ccccc2)C2(O)CC(OC(=O)C(OC(=O)CCCC(=O)NCCOCCOCCN)C(NC(=O)c3ccccc3)c3ccccc3)C(C)=C1C2(C)C (stereo not drawn) [TX-002, 2′-Glutaramidyl-PEG2-amine-paclitaxel acetate] | 48 ± 3 nM | 171 ± 8.8 nM | 16 nM | 18 ± 1.1 nM | 38 ± 4.6 nM | 47-60 fold | 22 ± 0.9 nM | 49 ± 6.5 nM | 32 ± 1.5 nM | 54 ± 5.3 nM | 1.1-1.5 fold | IC50 ([3]; read-out: IC50 (±S.E.) LCC6-MDR, 4.0 mM stock solutions that had been stored at 4° C. for 7 days): 879 nM; IC50 ([3]; read-out: IC50 (±S.E.) LCC6-MDR, Experiment 1, TX-001/TX-002 from 4.0 mM stocks, 72-96 h): 1070 ± 45 nM; IC50 ([3]; read-out: IC50 (±S.E.) LCC6-MDR, Experiment 2, TX-001/TX-002 from 0.4 mM stocks, 72-96 h): 1800 ± 168 nM |
| CC(=O)O.CC(=O)OC1C(=O)C2(C)C(O)CC3OCC3(OC(C)=O)C2C(OC(=O)c2ccccc2)C2(O)CC(OC(=O)C(OC(=O)CCC(=O)NCCOCCOCCN)C(NC(=O)c3ccccc3)c3ccccc3)C(C)=C1C2(C)C (stereo not drawn) [TX-001, 2′-Succinamidyl-PEG2-amine-paclitaxel Acetate] | 13 ± 0.5 nM | 37 ± 1.2 nM | 2.7 nM | 4.9 ± 0.5 nM | 13 ± 0.5 nM |  | 4.5 ± 0.4 nM | 19 ± 0.7 nM | 8.9 ± 0.4 nM | 36 ± 1.5 nM |  | chemical hydrolysis behavior [6]: converted quantitatively into paclitaxel |
| 2′-Succinamidyl-PEG2-amine-paclitaxel trifluoroacetate [Compound 3] |  |  |  |  |  |  |  |  |  |  |  | average purity of product fraction solutions after storage ([7]; after storage at 8° C. for 16 days): 97.4%; average purity of product fraction solutions, initial ([7]; preparative HPLC fraction solutions, before storage): 98.8% |
| CC(=O)O[C@H]1C(=O)[C@@]2(C)[C@H]([C@H](OC(=O)c3ccccc3)[C@]3(O)C[C@H](OC(=O)[C@H](O)[C@@H](NC(=O)c4ccccc4)c4ccccc4)C(C)=C1C3(C)C)[C@]1(OC(C)=O)CO[C@@H]1C[C@@H]2O [Paclitaxel, reference compound] |  |  |  |  |  | 65-92 fold |  |  |  |  | 1.1-1.4 fold | IC50 ([1]; Homo sapiens, A121, Experiment 1, TX-001/TX-002 from 4.0 mM stocks): 11 ± 0.5 nM; IC50 ([1]; Homo sapiens, A121, Experiment 2, TX-001/TX-002 from 0.4 mM stocks): 14 ± 1.3 nM; IC50 ([2]; Homo sapiens, Breast carcinoma cell, Experiment 1, TX-001/TX-002 from 4.0 mM stocks, 72-96 h): 4.7 ± 0.5 nM; IC50 ([2]; Homo sapiens, Breast carcinoma cell, Experiment 2, TX-001/TX-002 from 0.4 mM stocks, 72-96 h): 6 ± 2 nM; IC50 ([3]; Homo sapiens, LCC6MDR, read-out: IC50 (±S.E.) LCC6-MDR, Experiment 1, TX-001/TX-002 from 4.0 mM stocks, 72-96 h): 434 ± 28 nM; IC50 ([3]; Homo sapiens, LCC6MDR, read-out: IC50 (±S.E.) LCC6-MDR, Experiment 2, TX-001/TX-002 from 0.4 mM stocks, 72-96 h): 391 ± 52 nM; IC50 ([4]; Homo sapiens, HT-1080, Experiment 1, TX-001/TX-002 from 4.0 mM stocks): 4.5 ± 0.2 nM; IC50 ([4]; Homo sapiens, HT-1080, Experiment 2, TX-001/TX-002 from 0.4 mM stocks): 5.7 ± 0.3 nM; IC50 ([5]; Homo sapiens, Experiment 1, TX-001/TX-002 from 4.0 mM stocks): 4.9 ± 0.4 nM; IC50 ([5]; Homo sapiens, Experiment 2, TX-001/TX-002 from 0.4 mM stocks): 7.7 ± 0.1 nM |
| COc1cc([C@@H]2c3cc4c(cc3[C@@H](O[C@@H]3O[C@@H]5CO[C@@H](C)O[C@H]5[C@H](O)[C@H]3O)[C@H]3COC(=O)[C@H]23)OCO4)cc(OC)c1O [Etoposide] |  |  |  |  |  |  |  |  |  |  |  | solubility in water [8]: nearly insoluble in water |
